According to patent USRE40851E1, “3,3-diphenylpropylamines, their use and preparation” (Pfizer Health AB, priority 1992, dated 2009):
Counter-ions that a name gives are not always drawn.

Key:
[1] = target: muscarinic receptor (urinary bladder); assay: Muscarinic receptor binding, (−)3H-QNB competition, urinary bladder homogenate; details: guinea pig urinary bladder, 2 nM (−)3H-QNB, 25° C., 60 minutes
Protocol: (§1) The tissue preparations and the general methods used have been described in detail elsewhere for the parotid gland^1, urinary bladder^2, heart^3 and cerebral cortex^3, respectively. Male guinea pigs (250-400 g body weight) were killed by a blow on the neck and exsanguinated. The brain was placed on ice for dissection of the cerebral cortex (grey matter only). Urinary bladders, hearts and parotid glands were dissected in a Krebs-Henseleit buffer (pH 7.4) containing 1 mM phenyl methyl sulfonyl fluoride (PMSF, a protease inhibitor). Dissected tissues were homogenized in an ice-cold sodium-potassium phosphate buffer (50 mM, pH 7.4) containing 1 mM PMSF, using a Polytron PT-10 instrument (bladder, heart, parotid) and a Potter-Elvehjem Teflon homogenizer (cortex). All homogenates were finally diluted with the ice-cold phosphate/PMSF buffer to a final protein concentration of ≦0.3 mg/ml and immediately used in the receptor binding assays. Protein was determined by the method of Lowry et al. (1951)^4, using bovine serum albumin as the standard.
(§2) The muscarinic receptor affinities of the unlabelled compounds A to D identified above were derived from competition experiments in which the ability to inhibit the receptor specific binding of (−)^3H-QNB (1-quinuclidinyl[phenyl-4-^3H]benzilate, 32.9 Ci/mmole) was monitored as previously described^3,5. Each sample contained 10 μl of (−)^3H-QNB (final concentration 2 nM), 10 μl solution of test compound and 1.0 ml tissue homogenate. Triplicate samples were incubated under conditions of equilibrium, i.e., at 25° C. for 60 minutes (urinary bladder), 80 minutes (heart and cerebral cortex) or 210 minutes (parotid gland), respectively. Non-specific binding was determined in the presence of 10 μM unlabelled atropine. Incubations were terminated by centrifugation^2, and the radioactivity in the pellets was determined by liquid scintillation spectrometry^2.
(§3) IC50-values (concentration of unlabelled compound producing 50% inhibition of the receptor specific (−)^3H-QNB binding) were graphically determined from the experimental concentration-inhibition curves. Affinities, expressed as the dissociation constants Ki, were calculated by correcting the IC50 for the radioligand-induced parallel shift and differences in receptor concentration, using the method of Jacobs et al. (1975)^6. The binding parameters for (−)^3H-QNB (KD and receptor densities) used in these calculations were determined in separate series of experiments^1-3.

[2] = target: muscarinic receptor (cerebral cortex); assay: Muscarinic receptor binding, (−)3H-QNB competition, cerebral cortex homogenate; details: guinea pig cerebral cortex, 2 nM (−)3H-QNB, 25° C., 80 minutes
Protocol: as §1, §2, §3

[3] = target: Smooth muscle strips of the urinary bladder (carbachol contraction); assay: Functional in vitro study: antagonism of carbachol-induced contraction of urinary bladder smooth muscle strips; details: guinea pig urinary bladder strips, carbachol agonist, 60 min incubation with antagonist; read-out: KH bladder
Protocol: Male guinea pigs, weighing about 300 g, were killed by a blow on the neck and exsanguinated. Smooth muscle strips of the urinary bladder were dissected in a Krebs-Henseleit solution (pH 7.4). The strip preparations were vertically mounted between two hooks in thermostatically controlled (37° C.) organ baths (5 ml). One of the hooks was adjustable and connected to a force transducer (FT 03, Grass Instruments). The Krebs-Henseleit solution was continuously bubbled with carbogen gas (93.5% O2/6.5% CO2) to maintain the pH at 7.4. Isometric tension was recorded by a Grass Polygraph (Model 79D). A resting tension of approximately 5 mN was initially applied on each muscle strip and the preparations were allowed to stabilize for at least 45 min. The resting tension was repeatedly adjusted and the preparations were washed several times during the stabilization period.
Carbachol (carbamylcholine chloride) was used as the standard agonist. In each experiment, the viability of the preparations and the reproducibility of their contractile responses were initially tested by three consecutive additions of a submaximal concentration (3×10^−6M) of carbachol. A complete concentration-response curve to carbachol was then generated by cumulative addition of carbachol to the organ-bath (i.e., stepwise increase of the agonist concentration until the maximal contractile response was reached), followed by washing out and a resting period of at least 15 min. before a fix concentration of the test compound (antagonist) was added to the organ-bath. After 60 min. of incubation with the antagonist, a second cumulative concentration-response curve to carbachol was generated. Responses were expressed as per cent of the maximal response to carbachol. EC50-values for carbachol in the absence (control) and presence of antagonist were graphically derived and dose ratios (r) were calculated. Dissociation constants, KB, for the antagonists were calculated using equation (1)^7, where [A] is the concentration of test compound. KB=[A]/r−1 (1)

[4] = Functional in vivo study in anaesthetized cats: blood pressure, blood flow, heart rate; details: cat
Protocol: (§4) Adult cats were anaesthetized with mebumal (42 mg/kg) intraperitoneally. When the animal was asleep, an infusion cannula was inserted into the foreleg vein and the cat was given alpha-chloralose. During the experiment the animal was placed on an operation table warmed up with a feedback controlled electric pad. The cat was tracheotomized. For blood pressure registration, a polyethylene catheter was inserted into the femoral artery, with the tip in aorta, and connected via a three-way stopcock to a blood pressure transducer and a Grass polygraph. Heart rate was registered by connecting a tachograph to a driver amplifier which received the signal from the blood pressure transducer. Blood flow in the central mesenteric artery was measured by an ultrasound flow probe around the artery connected to a transonic blood flow meter and then to a Grass polygraph for registration of the flow. For infusion of the test substances, compounds D and A (as identified above), a polyethylene catheter was inserted into the femoral vein three-way stopcock to a syringe placed in an infusion pump (Sage instrument).
Through an incision in the proximal urethra, a catheter was inserted into the urinary bladder. At the beginning of each experiment, this catheter was connected to an open vessel, which was filled with 38° C. tempered physiological saline and placed above the animal. During this stabilization period the bladder relaxed, leading to a filling of the bladder with saline, under constant hydrostatic pressure. After the stabilization period, the bladder catheter was connected to a pressure transducer, for registration of intravesical pressure. Blood pressure, heart rate, blood flow and bladder pressure were recorded simultaneously and continuously throughout the experiment. The animals were left for at least 45 minutes to achieve steady state in cardiovascular variables before starting the experiment.
Bladder pressure was measured at 8 minutes after the end of infusion of the test substance. The surgical preparation was tested by intravenous injection of 0.25 μg/kg b.w. of noradrenalin and 0.5 μg/kg b.w. of acetylcholine.
To study the dose-response relationship of compound D identified above, the substance was administered at the doses 0.000 (physiological saline), 0.003, 0.010, 0.030 and 0.100 mg/kg, respectively, with infusion during 2 minutes and an infusion volume of 1 mL/kg. Every cat got all doses and was left to reestablish at least 45 minutes between the 0.003 and 0.010 mg/kg doses, and 60 minutes between the 0.030 and 0.100 mg/kg doses.
(§5) The results are presented in absolute values and calculated as mean value±standard deviation

[5] = test system: acetylcholine-induced effect on the bladder; assay: Functional in vivo study in anaesthetized cats: bladder pressure; details: cat, intravenous infusion
Protocol: as §4, with “For infusion of the test substances, compounds D and A (as identified above), a polyethylene catheter was inserted into the femoral vein three-way stopcock to a syringe placed in an infusion pump (Sage instrument).” left out
Through an incision in the proximal urethra, a catheter was inserted into the urinary bladder. […] Blood pressure, heart rate, blood flow and bladder pressure were recorded simultaneously and continuously throughout the experiment. […]
Bladder pressure was measured at 8 minutes after the end of infusion of the test substance. […]
as §5

[6] = intravenous, highest dose (0.3 mg/kg)

Row | SMILES | Ki [1] | Ki [2] | Kd [3] | increase of diastolic blood pressure ([4]; intravenous, 0,3 mg/kg) | increase of systolic blood pressure ([4]; intravenous, 0,3 mg/kg) | increase of the blood flow in superior mesenterica artery ([4]; intravenous, 0.003 mg/kg) | increase of the blood flow in superior mesenterica artery ([4]; intravenous, 0.01 mg/kg) | increase of the blood flow in superior mesenterica artery ([4]; intravenous, 0.03 mg/kg) | effect on the blood pressure ([4]; intravenous, doses other than 0,3 mg/kg) | decrease of heart rate [4, 6] | increase in blood flow [4, 6] | inhibition of the acetylcholine-induced effect on the bladder (bladder pressure) ([5]; bladder pressure 8 minutes after end of infusion) | efficiency of bladder pressure inhibition relative to prior art compound A ([5]; versus compound A)
1 | Cc1ccc(O)c(C(CCN(C(C)C)C(C)C)c2ccccc2)c1 (single isomer, unassigned; (+)) [(A), (+)N,N-diisopropyl-3-(2-hydroxy-5-methylphenyl)-3-phenylpropylamine, hydrochloride] | 2.7 nM | 0.8 nM | 3 nM |  |  |  |  |  |  |  |  |  | 
2 | CC(C)N(CCC(c1ccccc1O)c1cc(Cl)ccc1O)C(C)C (single isomer, unassigned; (+)) [(C), (+)N,N-diisopropyl-3-(5-chloro-2-hydroxyphenyl)-3-(2-hydroxyphenylpropylamine, hydrochloride] | 2.5 nM | 0.4 nM | 2.6 nM |  |  |  |  |  |  |  |  |  | 
3 | CC(C)N(CCC(c1ccccc1O)c1ccccc1O)C(C)C [(B), N,N-diisopropyl-3-bis-(2-hydroxyphenyl)propylamine hydrochloride] | 10.2 nM | 1.5 nM |  |  |  |  |  |  |  |  |  |  | 
4 | CC(C)N(CCC(c1ccccc1)c1cc(CO)ccc1O)C(C)C (stereo not drawn) [(D), (+)-N,N-diisopropyl-3-(2-hydroxy-5-hydroxymethylphenyl)-3-phenylpropylamine(+)mandelic acid salt] | 4.5 nM | 0.7 nM | 4.1 nM | 10% | 6% | 8% | 17% | 21% | little or no effect | 9% | 10% | dose-dependent inhibition | about ten times more efficient
